Measurements reported in patent US6423753B1, “Use of colchinol derivatives as vascular damaging agents” (priority 1997, dated 2002).
Where two headings read alike, the source gives them in different places.

How the values were obtained:
[1] = Maximum tolerated dose (no deaths in three animals); type: in vivo; conditions: for MTD: mouse, in vivo, other tubulin-binding agents, read-out: MTD (mg/kg body weight); for MTD mg/Kg body weight: maximum tolerated dose, no deaths in three animals
Source text: The phosphate compound was compared with the parent N-acetylcolchinol for the maximum tolerated dose (MTD) (no deaths in three animals), minimum effective dose (MED) measured by the fluorescent dye technique already described and the therapeutic window (MTD/MED).

CaNT tumour = conditions: for vascular-damaging effects: at Maximum Tolerated Dose (30 mg/kg), 30 mg/kg; for MED (mg/kg body weight): other tubulin-binding agents, by fluorescent dye technique; for % decrease in vascular volume: administered at 50 mg/kg, fluorescent dye technique; for MED mg/Kg body weight: minimum effective dose by the fluorescent dye technique
[2] = test system: Subcutaneous CaNT tumours; assay: Activity against tumour vasculature measured by radioactive tracer (86RbCl extraction, relative blood flow); type: in vivo, mice; conditions: dose of 125 mg/kg intraperitoneally
Protocol: Activity Against Tumour Vasculature Measured by Radioactive Tracer.
Subcutaneous CaNT tumours were initiated by injecting 0.05 ml of a crude tumour cell suspension, approximately 10^6 cells, under the skin overlying the rear dorsum of 12-16 week-old mice. The animals were selected for treatment after approximately 3-4 weeks, when their tumours reached a geometric mean diameter of 5.5-6.5 mm. Compounds were dissolved in sterile saline and injected intraperitoneally in a volume of 0.1 ml per 10 g body weight. Tumour perfusion was measured 6 hours after intraperitoneal administration in tumour, kidney, liver, skin muscle, gut and brain by the ^86RbCI extraction technique (Sapirstein, Amer J Physiol, 193, 161-168, 1958). Tissue radioactivity measured 1 minute after an intravenous injection of ^86RbCI was used to calculate relative blood flow as a proportion of cardiac output (Hill and Denekamp, Brit J Radiol, 55, 905-913, 1982). Five animals were used in control and treated groups. Results were expressed as a percentage of the blood flow in the corresponding tissues in vehicle treated animals.

[3] = compared with parent N-acetylcolchinol

## CC(=O)O[C@@]12CO[C@@H]1C[C@H](O)[C@@]1(C)C(=O)[C@H](O)C3=C(C)[C@@H](OC(=O)[C@H](O)[C@@H](NC(=O)OC(C)(C)C)c4ccccc4)C[C@@](O)([C@@H](OC(=O)c4ccccc4)[C@H]21)C3(C)C [Docetaxel, reference compound]
[1]
  MTD: 30 mg/kg
CaNT tumour
  vascular-damaging effects: No effect
  MED (mg/kg body weight): > 30 mg/kg body weight
CaNT tumour; listed as docetaxel
  vascular-damaging effects: no vascular-damaging effects

## COc1cc2c(c(OC)c1OC)-c1ccc(OP(=O)(O)O)cc1C(NC(C)=O)CC2 (stereo not drawn) [Example 1, N-Acetylcolchinol-O-phosphate]
[2]; measured 6 hours after administration, relative to vehicle treated animals
  decrease in tumour blood flow: 65%
[2]; normal tissues
  reduction in blood flow in skin, muscle, liver, kidney, gut or heart: no significant reduction
[1]
  MTD mg/Kg body weight: 750 mg/Kg body weight
CaNT tumour
  % decrease in vascular volume: 89%
  MED mg/Kg body weight: 50 mg/Kg body weight
[3]
  solubility: greater solubility

## COC(=O)COc1ccc2c(c1)C(NC(C)=O)CCc1cc(OC)c(OC)c(OC)c1-2 (stereo not drawn) [Example 7, N-Acetyl-O-methoxycarbonylmethylcolchinol]
CaNT tumour
  % decrease in vascular volume: 12%

## COc1cc2c(c(OC)c1OC)-c1ccc(O)cc1C(NS(C)(=O)=O)CC2 (stereo not drawn) [Example 5, N-Mesylcolchinol]
CaNT tumour
  % decrease in vascular volume: 38%

## COc1cc2c(c(OC)c1OC)-c1ccc(O)cc1C(NC(=O)Nc1ccccc1)CC2 (stereo not drawn) [Example 4, N-(Phenylcarbamoyl) colchinol]
CaNT tumour
  % decrease in vascular volume: 37%

## COc1cc2c(c(OC)c1OC)-c1ccc(OC3CCCC3)cc1C(NC(C)=O)CC2 (stereo not drawn) [Example 9, N-Acetyl-O-cyclopentylcolchinol]
CaNT tumour
  % decrease in vascular volume: 59%

## COc1cc2c(c(OC)c1OC)-c1ccc(O)cc1[C@@H](NC(C)=O)CC2 [N-acetylcolchinol, reference compound]
[1]
  MTD mg/Kg body weight: 125 mg/Kg body weight
CaNT tumour
  % decrease in vascular volume: 78%
  MED mg/Kg body weight: 30 mg/Kg body weight

## COc1cc2c(c(OC)c1OC)-c1ccc(OC)c(=O)cc1[C@@H](NC(C)=O)CC2 [Colchicine, reference compound]
[1]
  MTD: 5 mg/kg
CaNT tumour
  MED (mg/kg body weight): 2.5 mg/kg body weight

## COc1cc2c(c(OC)c1OC)-c1ccc(OCC(=O)O)cc1C(NC(C)=O)CC2 (stereo not drawn) [Example 8, N-Acetyl-O-carboxymethylcolchinol]
CaNT tumour
  % decrease in vascular volume: 49%

## CCNC1CCc2cc(OC)c(OC)c(OC)c2-c2ccc(O)cc21 (stereo not drawn) [Example 2, N-Ethylcolchinol]
CaNT tumour
  % decrease in vascular volume: 38%

## COc1cc2c(c(OC)c1OC)-c1ccc(O)cc1C(NC(=O)OCc1ccccc1)CC2 (stereo not drawn) [Example 3, N-Benzyloxvcarbonylcolchinol]
CaNT tumour
  % decrease in vascular volume: 43%

## COc1cc2c(c(OC)c1OC)-c1ccc(O)cc1C(NS(=O)(=O)N(C)C)CC2 (stereo not drawn) [Example 6, N-Dimethylsulphamoylcolchinol]
CaNT tumour
  % decrease in vascular volume: 30%

## COc1cc2c(c(OC)c1OC)-c1cc([N+](=O)[O-])c(O)cc1C(NC(C)=O)CC2 (stereo not drawn) [Example 10, N-Acetyl-10-nitrocolchinol]
CaNT tumour
  % decrease in vascular volume: 28%
